PubChem BioAssay AID2060510 (Molecular Pharmacology Branch, DTP, NCI, 2025)

System: 439559-082-T-J2-PDC spheroids viability
Assay: Anticancer human tumor 439559-082-T-J2-PDC patient-derived colon adenocarcinoma cell line growth inhibition [GQUAD]
Conditions: for IC50: curve of first compound; for viability, T/C: stronger effect = lower value
Method in brief: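 Tumor cells were grown as complex spheroids with HUVEC endothelial cells and mesenchymal stem cells as stroma. G-quadruplex stabilizers were combined with targeted agents over half-log dilutions from near the clinical Cmax, or from 10 microM.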

[1] = second compound 0.0316 µM, first compound 0.0316 µM
[2] = second compound 0.0316 µM, first compound 0.1 µM
[3] = second compound 0.0316 µM, first compound 0.316 µM
[4] = second compound 0.0316 µM, first compound 1 µM
[5] = second compound 0.0316 µM, first compound 3.16 µM
[6] = second compound 0.0316 µM, first compound 10 µM
[7] = second compound 0.1 µM, first compound 0.0316 µM
[8] = second compound 0.1 µM, first compound 0.1 µM
[9] = second compound 0.1 µM, first compound 0.316 µM
[10] = second compound 0.1 µM, first compound 1 µM
[11] = second compound 0.1 µM, first compound 3.16 µM
[12] = second compound 0.1 µM, first compound 10 µM
[13] = second compound 0.316 µM, first compound 0.0316 µM
[14] = second compound 0.316 µM, first compound 0.1 µM
[15] = second compound 0.316 µM, first compound 0.316 µM
[16] = second compound 0.316 µM, first compound 1 µM
[17] = second compound 0.316 µM, first compound 3.16 µM
[18] = second compound 0.316 µM, first compound 10 µM
[19] = second compound 1 µM, first compound 0.0316 µM
[20] = second compound 1 µM, first compound 0.1 µM
[21] = second compound 1 µM, first compound 0.316 µM
[22] = second compound 1 µM, first compound 1 µM
[23] = second compound 1 µM, first compound 3.16 µM
[24] = second compound 1 µM, first compound 10 µM
[25] = second compound 3.16 µM, first compound 0.0316 µM
[26] = second compound 3.16 µM, first compound 0.1 µM
[27] = second compound 3.16 µM, first compound 0.316 µM
[28] = second compound 3.16 µM, first compound 1 µM
[29] = second compound 3.16 µM, first compound 3.16 µM
[30] = second compound 3.16 µM, first compound 10 µM
[31] = second compound 10 µM, first compound 0.0316 µM
[32] = second compound 10 µM, first compound 0.1 µM
[33] = second compound 10 µM, first compound 0.316 µM
[34] = second compound 10 µM, first compound 1 µM
[35] = second compound 10 µM, first compound 3.16 µM
[36] = second compound 10 µM, first compound 10 µM
[37] = second compound 0.0316 µM, first compound 0.000999 µM
[38] = second compound 0.0316 µM, first compound 0.00316 µM
[39] = second compound 0.0316 µM, first compound 0.00999 µM
[40] = second compound 0.0316 µM, first compound 0.0999 µM
[41] = second compound 0.1 µM, first compound 0.000999 µM
[42] = second compound 0.1 µM, first compound 0.00316 µM
[43] = second compound 0.1 µM, first compound 0.00999 µM
[44] = second compound 0.1 µM, first compound 0.0999 µM
[45] = second compound 0.316 µM, first compound 0.000999 µM
[46] = second compound 0.316 µM, first compound 0.00316 µM
[47] = second compound 0.316 µM, first compound 0.00999 µM
[48] = second compound 0.316 µM, first compound 0.0999 µM
[49] = second compound 1 µM, first compound 0.000999 µM
[50] = second compound 1 µM, first compound 0.00316 µM
[51] = second compound 1 µM, first compound 0.00999 µM
[52] = second compound 1 µM, first compound 0.0999 µM
[53] = second compound 3.16 µM, first compound 0.000999 µM
[54] = second compound 3.16 µM, first compound 0.00316 µM
[55] = second compound 3.16 µM, first compound 0.00999 µM
[56] = second compound 3.16 µM, first compound 0.0999 µM
[57] = second compound 10 µM, first compound 0.000999 µM
[58] = second compound 10 µM, first compound 0.00316 µM
[59] = second compound 10 µM, first compound 0.00999 µM
[60] = second compound 10 µM, first compound 0.0999 µM
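Note: spheroids exposed to the agents for 7 days before readout.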
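Throughout, for viability, T/C: percent of luminescence signal in DMSO vehicle wells taken as 100% viability.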

## C=CC(=O)N1CCN(c2nc(=O)n(-c3c(C)ccnc3C(C)C)c3nc(-c4c(O)cccc4F)c(F)cc23)C(C)C1 (stereo not drawn) + Cc1cnc(CNC(=O)c2c(=O)c3ccc(N4CCCN(C)CC4)nc3n3c2sc2ccccc23)cn1
Second compound 0.0316 µM
  IC50: > 10000 nM
Second compound 0.1 µM
  IC50: > 10000 nM
Second compound 0.316 µM
  IC50: > 10000 nM
Second compound 1 µM
  IC50: > 10000 nM
Second compound 3.16 µM
  IC50: > 10000 nM
Second compound 10 µM
  IC50: > 10000 nM
[1]
  viability, T/C: 116%
[2]
  viability, T/C: 95.1%
[3]
  viability, T/C: 103%
[4]
  viability, T/C: 110%
[5]
  viability, T/C: 95.6%
[6]
  viability, T/C: 111%
[7]
  viability, T/C: 99.3%
[8]
  viability, T/C: 99.1%
[9]
  viability, T/C: 87.3%
[10]
  viability, T/C: 87.9%
[11]
  viability, T/C: 93%
[12]
  viability, T/C: 93.2%
[13]
  viability, T/C: 95.2%
[14]
  viability, T/C: 92.3%
[15]
  viability, T/C: 84.9%
[16]
  viability, T/C: 91.2%
[17]
  viability, T/C: 91.1%
[18]
  viability, T/C: 93%
[19]
  viability, T/C: 73.7%
[20]
  viability, T/C: 83%
[21]
  viability, T/C: 76.1%
[22]
  viability, T/C: 75.4%
[23]
  viability, T/C: 87.9%
[24]
  viability, T/C: 75.9%
[25]
  viability, T/C: 76.9%
[26]
  viability, T/C: 73%
[27]
  viability, T/C: 71.5%
[28]
  viability, T/C: 71.1%
[29]
  viability, T/C: 78%
[30]
  viability, T/C: 72.9%
[31]
  viability, T/C: 59.2%
[32]
  viability, T/C: 74.7%
[33]
  viability, T/C: 75.8%
[34]
  viability, T/C: 76.2%
[35]
  viability, T/C: 77.1%
[36]
  viability, T/C: 72.6%

## CC[C@@]1(O)C(=O)OCc2c1cc1n(c2=O)Cc2cc3c(CN(C)C)c(O)ccc3nc2-1 + Cc1cnc(CNC(=O)c2c(=O)c3ccc(N4CCCN(C)CC4)nc3n3c2sc2ccccc23)cn1
Second compound 0.0316 µM
  IC50: > 316 nM
Second compound 0.1 µM
  IC50: > 316 nM
Second compound 0.316 µM
  IC50: > 316 nM
Second compound 1 µM
  IC50: > 316 nM
Second compound 3.16 µM
  IC50: > 316 nM
Second compound 10 µM
  IC50: > 316 nM
[37]
  viability, T/C: 98.9%
[38]
  viability, T/C: 89.6%
[39]
  viability, T/C: 94.6%
[1]
  viability, T/C: 88.7%
[40]
  viability, T/C: 82.4%
[3]
  viability, T/C: 81.9%
[41]
  viability, T/C: 91.7%
[42]
  viability, T/C: 81.5%
[43]
  viability, T/C: 96.5%
[7]
  viability, T/C: 95.8%
[44]
  viability, T/C: 83%
[9]
  viability, T/C: 81.8%
[45]
  viability, T/C: 79.7%
[46]
  viability, T/C: 85.2%
[47]
  viability, T/C: 79.5%
[13]
  viability, T/C: 75.8%
[48]
  viability, T/C: 83.4%
[15]
  viability, T/C: 69%
[49]
  viability, T/C: 73.5%
[50]
  viability, T/C: 70.3%
[51]
  viability, T/C: 74.5%
[19]
  viability, T/C: 79.1%
[52]
  viability, T/C: 80%
[21]
  viability, T/C: 67.4%
[53]
  viability, T/C: 71.5%
[54]
  viability, T/C: 72%
[55]
  viability, T/C: 68.6%
[25]
  viability, T/C: 71.4%
[56]
  viability, T/C: 72.8%
[27]
  viability, T/C: 66.9%
[57]
  viability, T/C: 64.3%
[58]
  viability, T/C: 71.8%
[59]
  viability, T/C: 66.6%
[31]
  viability, T/C: 70.7%
[60]
  viability, T/C: 66.4%
[33]
  viability, T/C: 61.1%

## CCc1c2c(nc3ccc(O)cc13)-c1cc3c(c(=O)n1C2)COC(=O)[C@]3(O)CC + Cc1cnc(CNC(=O)c2c(=O)c3ccc(N4CCCN(C)CC4)nc3n3c2sc2ccccc23)cn1
Second compound 0.0316 µM
  IC50: 157 nM
Second compound 0.1 µM
  IC50: 122 nM
Second compound 0.316 µM
  IC50: 125 nM
Second compound 1 µM
  IC50: 92.4 nM
Second compound 3.16 µM
  IC50: 61 nM
Second compound 10 µM
  IC50: 67.2 nM
[37]
  viability, T/C: 99.4%
[38]
  viability, T/C: 83.5%
[39]
  viability, T/C: 78.8%
[1]
  viability, T/C: 66.4%
[40]
  viability, T/C: 53.7%
[3]
  viability, T/C: 43.1%
[41]
  viability, T/C: 88.7%
[42]
  viability, T/C: 79.5%
[43]
  viability, T/C: 76.2%
[7]
  viability, T/C: 68.1%
[44]
  viability, T/C: 53.4%
[9]
  viability, T/C: 34%
[45]
  viability, T/C: 77.3%
[46]
  viability, T/C: 70.1%
[47]
  viability, T/C: 72.3%
[13]
  viability, T/C: 65%
[48]
  viability, T/C: 55%
[15]
  viability, T/C: 31.8%
[49]
  viability, T/C: 67.3%
[50]
  viability, T/C: 69.9%
[51]
  viability, T/C: 60.6%
[19]
  viability, T/C: 59.4%
[52]
  viability, T/C: 50.1%
[21]
  viability, T/C: 33.8%
[53]
  viability, T/C: 65.7%
[54]
  viability, T/C: 74.8%
[55]
  viability, T/C: 56.9%
[25]
  viability, T/C: 55.7%
[56]
  viability, T/C: 47.6%
[27]
  viability, T/C: 24.6%
[57]
  viability, T/C: 60.6%
[58]
  viability, T/C: 60.4%
[59]
  viability, T/C: 58.3%
[31]
  viability, T/C: 52.8%
[60]
  viability, T/C: 48.8%
[33]
  viability, T/C: 20.1%

## COc1cc(C2c3cc4c(cc3C(OC3OC5COC(C)OC5C(O)C3O)C3COC(=O)C23)OCO4)cc(OC)c1O (stereo not drawn) + Cc1cnc(CNC(=O)c2c(=O)c3ccc(N4CCCN(C)CC4)nc3n3c2sc2ccccc23)cn1
Second compound 0.0316 µM
  IC50: > 10000 nM
Second compound 0.1 µM
  IC50: > 10000 nM
Second compound 0.316 µM
  IC50: > 10000 nM
Second compound 1 µM
  IC50: > 10000 nM
Second compound 3.16 µM
  IC50: > 10000 nM
Second compound 10 µM
  IC50: > 10000 nM
[1]
  viability, T/C: 92.8%
[2]
  viability, T/C: 99.9%
[3]
  viability, T/C: 93.4%
[4]
  viability, T/C: 85.5%
[5]
  viability, T/C: 84.1%
[6]
  viability, T/C: 60.3%
[7]
  viability, T/C: 86.2%
[8]
  viability, T/C: 83.7%
[9]
  viability, T/C: 85.1%
[10]
  viability, T/C: 76.5%
[11]
  viability, T/C: 80.5%
[12]
  viability, T/C: 59.9%
[13]
  viability, T/C: 94.4%
[14]
  viability, T/C: 86.5%
[15]
  viability, T/C: 81.4%
[16]
  viability, T/C: 75.2%
[17]
  viability, T/C: 70.2%
[18]
  viability, T/C: 56.3%
[19]
  viability, T/C: 74.8%
[20]
  viability, T/C: 78.9%
[21]
  viability, T/C: 70.6%
[22]
  viability, T/C: 70%
[23]
  viability, T/C: 64.8%
[24]
  viability, T/C: 55.1%
[25]
  viability, T/C: 63.6%
[26]
  viability, T/C: 73.3%
[27]
  viability, T/C: 66%
[28]
  viability, T/C: 66.5%
[29]
  viability, T/C: 66.2%
[30]
  viability, T/C: 56.3%
[31]
  viability, T/C: 72.3%
[32]
  viability, T/C: 63.6%
[33]
  viability, T/C: 62.5%
[34]
  viability, T/C: 60.8%
[35]
  viability, T/C: 59.8%
[36]
  viability, T/C: 49.8%
